The results in this text go back to paper PMC8080530, “Glucocorticoid receptor Thr524 phosphorylation by MINK1 induces interactions with 14-3-3 protein regulators” (The Journal of Biological Chemistry, 2021).

In this assay the target is T1, 14-3-3ζ (Homo sapiens, UniProt P63104).
T1 construct: Full-length expression and purification of 14-3-3; made in house; host or cells: E. coli BL21 (DE3)STAR
T1 sequence (P63104 1-245): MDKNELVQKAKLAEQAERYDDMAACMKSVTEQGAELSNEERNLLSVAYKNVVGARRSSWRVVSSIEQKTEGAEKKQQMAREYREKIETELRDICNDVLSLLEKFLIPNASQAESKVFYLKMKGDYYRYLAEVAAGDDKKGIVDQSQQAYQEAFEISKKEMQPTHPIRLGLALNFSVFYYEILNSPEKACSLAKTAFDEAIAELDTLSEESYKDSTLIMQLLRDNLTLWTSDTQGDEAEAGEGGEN
Briefly: FP assay with GR phosphorylated peptides and 14-3-3ζ. It counts as binding. Particulars: for Kd: FITC-labeled peptide 60 nM (monophosphorylated) or 10 nM (doubly phosphorylated) titrated with 14-3-3ζ, 30 min RT, Hill fit, triplicates, read-out: Kd with 14-3-3ζ by FP. In outline:
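Fluorescence polarization (ex 485/em 520 nm) was read in triplicate after 30-min RT incubation. Binding data were fitted to a standard Hill equation and expressed in mP units. The dynamic range (ΔmP) is the difference between bound and free peptide signals.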

Non-standard residues stand in square brackets, D forms with d. Residues, ends and D or L forms follow the SMILES beside them. *: point of attachment. 6FAM = O=C1OC2(c3ccc(O)cc3Oc3cc(O)ccc32)c2cc(C(=O)*)ccc21; pT = C[C@@H](OP(=O)(O)O)[C@H](N)C(=O)O; pS = N[C@@H](COP(=O)(O)O)C(=O)O

What is called Kd is the constant that tells how readily two partners part at equilibrium. `CSCC[C@H](NC(=O)[C@H](CO)NC(=O)[C@H](CC(C)C)NC(=O)[C@H](COP(=O)(O)O)NC(=O)[C@@H](NC(=O)[C@H](C)NC(=O)[C@H](CCCCN)NC(=O)[C@H](CO)NC(=O)[C@H](CC(C)C)NC(=O)[C@H](CC(=O)O)NC(=O)c1ccc2c(c1)C1(OC2=O)c2ccc(O)cc2Oc2cc(O)ccc21)C(C)C)C(=O)NCC(=O)N[C@@H](CC(C)C)C(=O)N[C@@H](Cc1ccc(O)cc1)C(=O)NCC(=O)NCC(=O)NCC(=O)NCC(=O)NCC(=O)N[C@@H](CC(N)=O)C(=O)N[C@@H](CC(C)C)C(=O)N[C@@H](CC(N)=O)C(=O)N[C@@H](CCCNC(=N)N)C(=O)N[C@@H](CO)C(=O)N[C@H](C(=O)N[C@@H](COP(=O)(O)O)C(=O)N[C@H](C(=O)N1CCC[C@H]1C(=O)N[C@@H](CCC(=O)O)C(=O)N[C@@H](CC(N)=O)C(=O)N1CCC[C@H]1C(=O)N[C@@H](CCCCN)C(=O)O)C(C)C)[C@@H](C)O` [GR_pS83-pS134] (6FAM-DLSKAV[pS]LSMGLYGGGGGNLNRST[pS]VPENPK-OH; C-terminus assumed): the Kd is 22 ± 8 µM. Besides, the “fold decrease in binding affinity with 14-3-3ζ relative to GR_pT524-pS617” value (ratio of Kd values) is on record as “at least 15 fold”.

As to `CC[C@H](C)[C@H](NC(=O)[C@H](CCC(N)=O)NC(=O)CNC(=O)[C@@H](N)CCC(N)=O)C(=O)N[C@@H](CO)C(=O)N[C@@H](CC(C)C)C(=O)N[C@@H](COP(=O)(O)O)C(=O)N[C@@H](CO)C(=O)NCC(=O)N[C@@H](CCC(=O)O)C(=O)N[C@H](C(=O)N[C@@H](CC(=O)O)C(=O)N[C@@H](CC(C)C)C(=O)O)[C@@H](C)O` [GR_pS113] (H-QGQISL[pS]SGETDL-OH; N-terminus and C-terminus assumed), the Kd is over 150 µM.

Take `CC[C@H](C)[C@H](NC(=O)[C@@H](NC(=O)[C@H](CCCCN)NC(=O)CNC(=O)CNC(=O)CNC(=O)CNC(=O)CNC(=O)[C@H](CCCCN)NC(=O)[C@@H]1CCCN1C(=O)[C@H](CC(N)=O)NC(=O)[C@H](CCC(=O)O)NC(=O)[C@@H]1CCCN1C(=O)[C@@H](NC(=O)[C@H](COP(=O)(O)O)NC(=O)[C@@H](NC(=O)[C@H](CO)NC(=O)[C@H](CCCNC(=N)N)NC(=O)[C@H](CC(N)=O)NC(=O)[C@H](CC(C)C)NC(=O)[C@H](CC(N)=O)NC(=O)c1ccc2c(c1)C1(OC2=O)c2ccc(O)cc2Oc2cc(O)ccc21)[C@@H](C)O)C(C)C)[C@@H](C)O)C(=O)N[C@H](C(=O)N1CCC[C@H]1C(=O)N[C@@H](C)C(=O)N[C@H](C(=O)N[C@@H](CC(C)C)C(=O)N1CCC[C@H]1C(=O)N[C@@H](CCC(N)=O)C(=O)N[C@@H](CC(C)C)C(=O)N[C@H](C(=O)N1CCC[C@H]1C(=O)O)[C@@H](C)O)[C@@H](C)OP(=O)(O)O)C(C)C` [GR_pS134-pT524] (6FAM-NLNRST[pS]VPENPKGGGGGKTIVPA[pT]LPQLTP-OH; C-terminus assumed): the Kd came to 0.55 µM.

For `CC(C)C[C@H](N)C(=O)N[C@@H](CCC(=O)O)C(=O)N[C@@H](Cc1ccccc1)C(=O)N[C@@H](CO)C(=O)N[C@@H](CO)C(=O)NCC(=O)N[C@@H](COP(=O)(O)O)C(=O)N1CCC[C@H]1C(=O)NCC(=O)N[C@@H](CCCCN)C(=O)N[C@@H](CCC(=O)O)C(=O)N[C@H](C(=O)N[C@@H](CC(N)=O)C(=O)O)[C@@H](C)O` [GR_pS203] (H-LEFSSG[pS]PGKETN-OH; N-terminus assumed), the Kd is over 150 µM.

Consider `CC(C)C[C@H](NC(=O)[C@H](CC(=O)O)NC(=O)[C@H](CO)NC(=O)[C@H](CCCNC(=N)N)NC(=O)[C@H](Cc1c[nH]c2ccccc12)NC(=O)[C@@H]1CCCN1C(=O)[C@H](COP(=O)(O)O)NC(=O)[C@H](CCC(=O)O)NC(=O)[C@H](CC(N)=O)NC(=O)[C@@H](NC(=O)[C@H](CCC(=O)O)NC(=O)[C@H](CCCCN)NC(=O)CN)[C@@H](C)O)C(=O)O` [GR_pS211] (H-GKETNE[pS]PWRSDL-OH; N-terminus assumed), for which the Kd is over 150 µM.
